Assay results as given in patent US20160090351A1, “INHIBITORS OF DEUBIQUITINATING PROTEASES” (BRANDEIS UNIVERSITY, priority 2013, published 2016).

Assays:
Format in all cases: cell-based, human
[1] = tested on: ubiquitin-proteasome system; experiment: GFP-G76V-Ub assay in HEK 293T cells; details: diphenyl carbonates 100 μM, bortezomib 20 μM, G5 2 μM
Procedure: (§1) FIG. 32 depicts data showing that diphenyl carbonates inhibit DUBs in HEK 293T cells. A. Viability of HEK 293T cells assessed by the propidium iodide exclusion method: diphenyl carbonate (100 μM), bortezomib (V, 20 μM) and G5 (2 μM). N≧3, mean+/−s.d. B. HEK 293T cells were treated with the stated compounds (50 μM) for 2 h and then assayed for the accumulation of K48-linked Ub species. C. As in A, but K63-linked Ub was assayed. D. HEK 293T cells were treated with C14, C15, C17, C18 (100 μM) or DMSO for 2 hours, then harvested, lysed and treated with HA-Ub-VS. After 30 min, lysates were analyzed by SDS-PAGE and probed for HA, tubulin and actin. An intervening lane was removed for clarity. E. HEK 293T cells expressing Ub-G76V-GFP were treated with diphenyl carbonates (100 μM), bortezomib (20 μM) and G5 (2 μM). […] N>3, Mean+/−s.d. See also FIG. 39.
FACS was carried out on a […] FACS-Calibur. For HEK 293T and K562, cells were resuspended by repeated pipetting/agitation of the incubation media, followed by dilution into PBS. For Cos-1, MCF-7, and CHO cells, media was removed and trypsin was added. Harvested cells were placed in FACS buffer (0.5% FBS in PBS with 3 μg/mL propidium iodide) 30 s prior to analysis. All data were analyzed using FlowJo V10, from TreeStar (Ashland, Oreg.). Approximately 2500 cells were sorted per replicate. Cells were sorted by propidium iodide dye exclusion to give a “viable population”. GFP positive cells within this group were identified relative to untransfected controls. Then the geometric mean of the whole GFP positive population within the viable population was calculated. Typical transfection efficiencies for G76V ubiquitin were 60-70% for both Cos-1 and HEK 293T and 25-40% for CHO cells, based on GFP positive cells.
The activity of the diphenylcarbonates in the GFP-G76V-Ub assay, which monitors flux through the ubiquitin-proteasome system, was also investigated. The G76V mutation creates an unstable Ub fusion protein that is degraded in a proteasome dependent process. GFP fluorescence increased when HEK 293T cells expressing GFP-G76V-Ub were treated with the proteasome inhibitor bortezomib and decreased upon treatment with G5 (FIG. 39). This decrease has been attributed to increased flux through the ubiquitin-proteasome system triggered by the accumulation of HMW-Ub. […] Perhaps the inability of the diphenylcarbonates to inhibit UCH-L1/3 accounts for the stability of GFP-G76V-Ub. This selectivity might also explain the low cytoxicity of these compounds relative to G5.

Mdm2, p53, p21/WAF1 = experiment: Mdm2, p53 and p21/WAF1 levels in MCF7 cells; details: for Mdm2 levels: C17 4 h, C15 6 hours dosed every 2 hours
Procedure: FIG. 35 depicts data showing that diphenylcarbonates reduce the levels of Mdm2 and cause the accumulation of P53 and P21 in MCF7 cells. A. MCF7 cells were treated with C17 for 4 h and Mdm2 levels were measured. B. As in A, P53 measured. C. As in A, P21 measured. D. MCF7 and B16/F10 cells were treated with C17 every 24 hours. After 72 hours, the number of viable cells was measured by Alamar Blue®. See also FIG. 41 and FIG. 42.
C. Effect of C15 on PARP cleavage and P53 levels. […] E. Effects of C15 on Mdm2 and P21 levels. […] F. DMSO treated cells. […] C17 was dosed every 24 h. After this time, cells were analyzed by flow cytometry.
Transfected cells were harvested 1.5 days post transfection. […] Typically clarified lysate was analyzed.
The ability of diphenyl carbonates to inhibit USP7 function in cells was also assessed. The ubiquitin-ligase Mdm2 is a substrate for USP7. Mdm2 is responsible for the ubiquitination and subsequent degradation of p53. Mdm2 is over-expressed in many cancer cells, resulting in the depletion of p53. Mdm2 is itself degraded via an ubiquitin-dependent process. USP7 removes ubiquitin from Mdm2, protecting it from degradation. Like Mdm2, USP7 is over-expressed in many cancers. Inhibition of USP7 promotes the proteasome-mediated degradation of Mdm2, which causes an increase in p53 levels, as well as those of the downstream signaling protein p21/WAF1, and ultimately induces apoptosis.

USP9x and USP7 = experiment: HA-Ub-VS activity profiling of lysates from treated HEK 293T cells, USPs; details: 100 μM, 2 hours
Procedure: as §1
Lysate labeling assay on untransfected cells (1.5 mg/mL) was run with the stated concentration of inhibitor (or 1% DMSO control) for between 19-60 mins. After this time HA-Ub-VS (1.5-0.7 μM) was added and incubated for 19 mins. After this time reaction mixture (9 μL) was removed and quenched in 2× (final concentration) reducing loading buffer. […]
Lysates from HEK 293T cells treated with diphenylcarbonates were analyzed by HA-Ub-VS activity profiling to assess the selectivity of DUB inhibition in the context of a cell.

NCc1ccc(OC(=O)Oc2ccc(Cl)cc2)cc1 [Compound C14, 4-(aminomethyl)phenyl(4-chlorophenol)carbonate]
GFP fluorescence [1]: no change in fluorescence was observed

NCc1ccc(OC(=O)Oc2ccc(Br)cc2)cc1 [Compound C15, 4-(aminomethyl)phenyl(4-bromophenyl)carbonate]
p21/WAF1 levels (Mdm2, p53, p21/WAF1): decreased p21/WAF1 | p53 levels (Mdm2, p53, p21/WAF1): increased P53 levels | Mdm2 levels (Mdm2, p53, p21/WAF1): decreased Mdm2 | GFP fluorescence [1]: no change in fluorescence was observed

NCc1ccc(OC(=O)Oc2ccc3ccccc3c2)cc1 [Compound C17]
p21/WAF1 levels (Mdm2, p53, p21/WAF1): robust increase in p21/WAF1 levels | p53 levels (Mdm2, p53, p21/WAF1): concomitant increase in p53 | Mdm2 levels (Mdm2, p53, p21/WAF1): Mdm2 levels decreased | GFP fluorescence [1]: no change in fluorescence was observed | HA-Ub-VS labeling of USP9x and USP7 after treatment of cells (USP9x and USP7): most potent compounds

NCc1ccc(OC(=O)Oc2cccc3ccccc23)cc1 [Compound C18]
GFP fluorescence [1]: no change in fluorescence was observed | HA-Ub-VS labeling of USP9x and USP7 after treatment of cells (USP9x and USP7): most potent compounds

O=C1/C(=C/c2ccc([N+](=O)[O-])cc2)CS(=O)(=O)C/C1=C\c1ccc([N+](=O)[O-])cc1 [Compound G5, reference compound]
GFP fluorescence [1]: decreased
